Experimental data taken from publication PMC9585581, “Developing Photoaffinity Probes for Dopamine Receptor D2 to Determine Targets of Parkinson’s Disease Drugs” (ACS Chemical Neuroscience, 2022).

What was measured:
[1] = tested on: DRD2-expressing cell line (DRD2-Strep Tag II fusion HEK293T); experiment: Colocalization analysis via confocal microscopy of photo-cross-linked, dye-clicked probe in cells; format: cell-based, human; conditions: probe 5 μM, Alexa Fluor 555 azide clicked
Experimental: After the biochemical characterization of the dynamic interaction between the probe and target, we set out to characterize the static interaction: colocalization of probe and receptor in cells, with an emphasis on both on- and off-target labeling. Specifically, due to the known propensity for photo-cross-linking groups to nonspecifically label, we wanted a holistic view of how the probes interacted with whole cells. Thus, we treated our DRD2-expressing cell line with a 5 μM solution of the probe, photo-cross-linked, “clicked” on an azido fluorophore, and labeled the DRD2 receptor via an antibody conjugated to a complementary fluorophore (Figure 4a). Our results (Figure 4b) indicate that there is indeed background labeling with the probes. […] We therefore proceeded to quantify the specific vs nonspecific binding of the probe.
Figure 4 Photo-cross-linking of dye-clicked probe: confocal microscopy. (a) Schematic of the methodology used in the labeling process. […]
HEK293T cells and a stable HEK293T-derived cell line-expressing DRD2-Strep Tag II fusion were maintained in DMEM supplemented with 10% FBS, 100 U/mL penicillin, and 100 μg/mL streptomycin in a humidified atmosphere at 37 °C in 5% CO2. […] The cells were then washed 3 times with TBS and imaged for Alexa Fluor 488 fluorescence and AF555 fluorescence using a Zeiss LSM 980 with Airyscan 2. […]

[2] = target: DRD2 (Homo sapiens, UniProt P14416); experiment: PRESTO-TANGO β-arrestin recruitment assay (HTLA cells transfected with DRD2-TANGO, luciferase readout); format: cell-based; design: TEV protease site and fused transcription factor (TANGO module); expressed in transfected cells; host or cells: HTLA cells (gift of G. Barnea), transiently transfected; conditions: for activity in β-arrestin recruitment (in words): PRESTO-TANGO; for EC50: PRESTO-TANGO β-arrestin recruitment, luciferase activity, Hill slope of 1.0; for difference in potency of probe vs parent compound: β-arrestin recruitment, probes vs their parent compounds
Description: To characterize the response of the β-arrestin effector pathway to our ligands, we used the Parallel-Receptor-ome Expression and Screening via Transcriptional Output TANGO (PRESTO-TANGO) assay developed in the Roth lab.[44],[45] This assay uses luciferase activity to monitor β-arrestin recruitment by DRD2 (Figure 3a).
Figure 3 β-Arrestin recruitment analysis. (a) PRESTO-TANGO assay schematic: a ligand binds a chimeric DRD2 receptor, which then recruits β-arrestin fused with a TEV protease. The protease cuts a site between the receptor and a fused transcription factor, which then transits to the […] to initiate transcription of a luciferase gene. The luciferase activity is subsequently quantified.
HTLA cells were a gift from the laboratory of G. Barnea and were maintained in DMEM supplemented with 10% FBS, 100 U/mL penicillin, 100 μg/mL streptomycin, 2 μg/mL puromycin, 100 μg/mL hygromycin B, and 100 μg/mL G418 in a humidified atmosphere at 37 °C in 5% CO2. On day 1, cells were plated at a density of 1 × 10^5 cells/cm^2 in a black wall, clear-bottom 96-well plate (Nunc). The following day (day 2), cells were transfected with a 10× solution of 3:1 mixture of DRD2-TANGO/Optifect Transfection Reagent (Thermo) in unsupplemented DMEM. On day 3, 1× drug stimulation solutions were prepared in filter-sterilized unsupplemented DMEM. The transfection media was shaken or aspirated from the wells, and drug stimulation solutions were gently added. On day 4, drug solutions were removed from one well every 10 s (to maintain consistency of incubation time) and 50 μL per well of Bright-Glo solution (Promega) diluted 20-fold in HBSS was added. After incubation for 2 min at room temperature, luminescence was counted with an integration time of 10 s in a Spectramax i3x plate reader (Molecular Devices).

Chain of DRD2 (P14416 whole entry, the tested form may be a part): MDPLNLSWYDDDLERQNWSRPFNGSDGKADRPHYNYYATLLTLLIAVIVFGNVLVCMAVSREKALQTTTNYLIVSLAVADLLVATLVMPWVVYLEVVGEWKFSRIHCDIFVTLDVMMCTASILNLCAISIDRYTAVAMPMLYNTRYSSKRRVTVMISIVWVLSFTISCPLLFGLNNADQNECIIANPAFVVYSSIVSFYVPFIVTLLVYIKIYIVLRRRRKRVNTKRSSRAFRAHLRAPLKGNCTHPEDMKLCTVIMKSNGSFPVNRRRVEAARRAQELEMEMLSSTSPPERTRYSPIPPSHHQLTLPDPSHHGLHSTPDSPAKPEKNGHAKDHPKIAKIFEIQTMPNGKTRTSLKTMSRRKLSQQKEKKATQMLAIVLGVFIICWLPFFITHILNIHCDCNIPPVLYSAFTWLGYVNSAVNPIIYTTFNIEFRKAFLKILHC

SMILES	labeling of DRD2-expressing cells (confocal microscopy) [1]	activity in β-arrestin recruitment (in words) [2]	EC50 [2]	difference in potency of probe vs parent compound [2]
C#CCOc1ccc(C(=O)c2ccc(CNCCc3cccc4c3CC(=O)N4)cc2)cc1 [Compound 5, 4-(2-((4-(4-(Prop-2-yn-1-yloxy)benzoyl)benzyl)amino)ethyl)indolin-2-one]	higher avidity relative to the other probes	low micromolar activity	1320 nM	~1000 ×
C#CCOc1ccc(C(=O)c2ccc(CN[C@H]3CCc4nc(N)sc4C3)cc2)cc1 [Compound 7, (S)-(4-(((2-Amino-4,5,6,7-tetrahydrobenzo[d]thiazol-6-yl)amino)methyl)phenyl)(4-(prop-2-yn-1-yloxy)phenyl)methanone]	higher avidity relative to the other probes	low micromolar activity	990 nM	~1000 ×
